{"source": "patent US20180290977A1", "about": "“KDM4 INHIBITORS” (Albert-Ludwigs-University Freiburg, priority 2017, published 2018)", "assay_type_in_all_cases": "cell-based, human", "key": {"[1]": {"test_system": "BCSC1 cells", "test": "BCSC cell proliferation / dose-response assay", "details": "erlotinib, 10 μM (FIG. 7B)", "procedure": "(§1) For dose-response assays, cells were detached by ACCUTASE solution dissociation and counted. […] After incubation at 37° C. for 30 min to solidify the [sequence], 1×10^3 single cells were seeded per 384-well in 40 μL medium. […] Following 96 hr of incubation under normal culture conditions, the cells were washed once with PBS and fixed with ice-cold methanol for at least 15 min at −20° C. After another washing step with PBS, cells were stained with DAPI (Sigma-Aldrich) and read-out with the ScanR microscope-based imaging platform (Olympus Deutschland GmbH, Hamburg, Del.). Total DAPI cell nuclear counts per well were determined.\n(§2) For the cell proliferation assays, BCSCs tagged with a stable NLS-mCherry fluorescent signal (nuclear localization peptide) were used for this assay. Cells were detached by ACCUTASE dissociation and counted. Each well of a black 384-well plate (Greiner) was coated with 10 μL of MSC medium containing 2% [sequence]. After incubation at 37° C. for 30 min to solidify the [sequence], 1×10^3 single cells/well were seeded in 40 μL medium. […] Afterwards, the first readout with the ScanR microscope-based imaging platform (Olympus) was started, assessing mCherry-fluorescent cell nuclei in nine sectors of each well under 60% humidity and 5% CO2. This readout was repeated every 24 hr for 7 days. […]"}, "[2]": {"test_system": "BCSC2 cells", "test": "BCSC cell proliferation / dose-response assay", "details": "erlotinib, 10 μM (FIG. 7C)", "procedure": "as §1, §2"}, "[3]": {"test_system": "BCSC1 cells", "test": "Anchorage-independent sphere formation assay (methylcellulose)", "details": "erlotinib 1 μM or 10 μM (FIG. 7F)", "procedure": "(§3) For the cancer stem-cell spheroid assay in methylcellulose, cells were detached by ACCUTASE solution and counted. 3×10^3 single BCSC1 and 1×10^3 single BCSC2 cells were seeded into individual wells of 96-well ultra-low attachment plates (CORNING, #3474) in serum-free MSC medium containing 1% methylcellulose (Sigma-Aldrich, #M0512)."}, "[4]": {"test_system": "BCSC2 cells", "test": "Anchorage-independent sphere formation assay (methylcellulose)", "details": "erlotinib 1 μM or 10 μM (FIG. 7G)", "procedure": "as §3"}}}
{"smiles": "C#Cc1cccc(Nc2ncnc3cc(OCCOC)c(OCCOC)cc23)c1", "note": "[erlotinib]", "values": [{"measurement": "proliferation of BCSC1 cells", "setting": "[1]", "result": "blocked"}, {"measurement": "proliferation of BCSC2 cells", "setting": "[2]", "result": "blocked"}, {"measurement": "3D-colony forming capacity", "setting": "[3]", "result": "dramatically reduced"}, {"measurement": "3D-colony forming capacity", "setting": "[4]", "result": "dramatically reduced"}]}
